{"source": "patent US20250043360A1", "about": "“USE OF RPN11 MARKER IN DETECTION OF MYELOMA AND DISEASE RISK THEREOF, PROGNOSIS ANALYSIS AND TREATMENT MEDICAMENT” (Peking University, priority 2022, published 2025)", "type_in_all_cases": "cell-based", "key": {"LP-1 cells [1]": {"system": "LP-1 cells", "experiment": "Cell apoptosis experiment, wild-type LP-1 cells", "conditions": "vs control group (Vehicle), OPA 10 μM, Capzimin 2 μM, FIG. 7B", "procedure": "(§1) Apoptosis was detected in LP-1 cells stably overexpressing and knocking down RPN11. The cells were treated with camptothecin (CPT) for 24 h, washed with PBS, double-stained with Annexin V-APC/propidium iodide (PI) for 15 min at room temperature in the dark, and cell collection and analysis were conducted on each sample using a FACS Calibur flow cytometer.\n(§2) Wild-type or bortezomib-resistant LP-1 cells (LP-1 or LP-1BR) were treated with Vehicle or RPN11 inhibitor (OPA or Capzimin) separately, and the proliferation and apoptosis of LP-1BR cells were detected through CCK cell counting experiment and cell apoptosis experiment."}, "[2]": {"system": "bortezomib-resistant LP-1 cells (LP-1BR)", "experiment": "Cell apoptosis experiment, bortezomib-resistant LP-1 cells", "conditions": "LP-1BR cells, vs control group (Vehicle); OPA 10 μM, Capzimin 2 μM; FIG. 7B", "procedure": "as §1, §2"}, "LP-1 cells [3]": {"system": "LP-1 cells", "experiment": "CCK cell counting experiment, wild-type LP-1 cells", "conditions": "vs control group (Vehicle), OPA 10 μM, Capzimin 2 μM, FIG. 7A", "procedure": "(§3) CCK kit was used to detect cell proliferation of LP-1 cells stably overexpressing and knocking down RPN11: after the transfected cells were cultured for 48 h, the cells were digested with 0.25% trypsin and counted, inoculated in a 96-well plate at a concentration of 1×10^4 cells/mL, 100 μL in each well; 10 μL of CCK8 reagent was added to each well of the 96-well plate in the dark, the culture plate was shaken for 3 min, then placed into the incubator to continue culturing for 2 h, and the culture plate was taken out and the OD value was measured at a wavelength of 450 nm with a microplate reader.\nas §2"}, "[4]": {"system": "bortezomib-resistant LP-1 cells (LP-1BR)", "experiment": "CCK cell counting experiment, bortezomib-resistant LP-1 cells", "conditions": "LP-1BR cells, vs control group (Vehicle); OPA 10 μM, Capzimin 2 μM; FIG. 7A", "procedure": "as §3, §2"}, "LP-1 cells [5]": {"system": "LP-1 cells", "experiment": "CCK cell counting assay, RPN11 inhibitor combined with Lenalidomide or Dexamethasone", "conditions": "vs either agent alone, range of concentrations, FIG. 8", "procedure": "as §3\nLP-1 cells were treated with RPN11 inhibitors (OPA or Capzimin) or/and Lenalidomide or Dexamethasone (within a range of concentrations), and the cell proliferation ability was detected using CCK cell counting assay."}}}
{"smiles": "c1cnc2c(c1)ccc1cccnc12", "note": "[OPA]", "values": [{"measurement": "number of apoptotic cells", "setting": "LP-1 cells [1]", "result": "significantly increased"}, {"measurement": "number of apoptotic cells", "setting": "[2]", "result": "significantly increased"}, {"measurement": "proliferation ability", "setting": "LP-1 cells [3]", "result": "significantly reduced"}, {"measurement": "proliferation ability", "setting": "[4]", "result": "significantly reduced"}, {"measurement": "combined treatment effect on inhibiting the growth and proliferation", "setting": "LP-1 cells [5]; combined with dexamethasone", "result": "synergistic effect"}, {"measurement": "combined treatment effect on inhibiting the growth and proliferation", "setting": "LP-1 cells [5]; combined with lenalidomide", "result": "synergistic effect"}]}
